In patent US9776972B2, “Pyrazole derivatives as arginine methyltransferase inhibitors and uses thereof” (priority 2013, dated 2017):

What follows are compounds tested against human PRMT3 (Homo sapiens, UniProt O60678) (assay: PRMT3 Biochemical Assay (3H-SAM Flashplate, peptide substrate)). Settings: single experiment or average of multiple experiments.
Sequence of human PRMT3 (O60678 with tags, fused parts or gaps): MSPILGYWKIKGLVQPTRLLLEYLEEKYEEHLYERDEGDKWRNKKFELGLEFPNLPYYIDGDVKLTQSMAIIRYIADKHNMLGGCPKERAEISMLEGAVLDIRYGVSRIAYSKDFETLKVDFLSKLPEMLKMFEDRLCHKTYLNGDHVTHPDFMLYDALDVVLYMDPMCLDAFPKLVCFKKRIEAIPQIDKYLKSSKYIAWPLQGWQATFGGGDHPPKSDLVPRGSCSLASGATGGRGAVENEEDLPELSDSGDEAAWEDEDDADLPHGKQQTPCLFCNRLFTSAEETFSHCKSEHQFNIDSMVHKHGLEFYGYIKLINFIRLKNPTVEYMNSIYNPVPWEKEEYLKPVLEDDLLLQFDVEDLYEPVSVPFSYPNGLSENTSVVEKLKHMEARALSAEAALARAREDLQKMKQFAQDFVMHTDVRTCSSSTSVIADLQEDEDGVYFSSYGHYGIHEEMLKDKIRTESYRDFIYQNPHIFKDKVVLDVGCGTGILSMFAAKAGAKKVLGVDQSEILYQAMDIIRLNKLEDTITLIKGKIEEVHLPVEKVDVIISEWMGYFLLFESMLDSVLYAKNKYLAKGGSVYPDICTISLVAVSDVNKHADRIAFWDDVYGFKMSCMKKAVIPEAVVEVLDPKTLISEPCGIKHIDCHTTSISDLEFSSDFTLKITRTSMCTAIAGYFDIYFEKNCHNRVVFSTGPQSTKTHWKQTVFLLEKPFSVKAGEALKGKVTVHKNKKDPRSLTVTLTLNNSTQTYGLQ

Going from CNCCN(C)Cc1c[nH]nc1-c1ccc(F)cc1 [Compound 2, N^1-((3-(4-fluorophenyl)-1H-pyrazol-4-yl)methyl)-N^1,N^2-dimethylethane-1,2-diamine] to CNCCN(C)Cc1c[nH]nc1-c1ccc(N)cc1 [Compound 33], the IC50 falls from 4.48 µM to 1.89 µM (2.4-fold).

Compared with CCCc1ccc(-c2n[nH]cc2CN(C)CCNC)cc1 [Compound 20], CNCCN(C)Cc1c[nH]nc1-c1ccc(CO)cc1 [Compound 28] is 18-fold lower in IC50: 3.54 µM for the first, 0.202 µM for the second. The second is the more potent here.

First: CNCCN(C)Cc1c[nH]nc1-c1cccc([N+](=O)[O-])c1 [Compound 21]
Second: CNCCN(C)Cc1c[nH]nc1-c1ccc(F)c(F)c1 [Compound 51]
The IC50 of the first is 2.2-fold lower: 2.3 µM for the first, 5.01 µM for the second. The first is the more potent here.

Going from CNCCN(C)Cc1c[nH]nc1-c1ccc(Oc2ccccc2)cc1 [Compound 37] to CNCCN(C)Cc1c[nH]nc1-c1ccc(C(=O)c2ccccc2)cc1 [Compound 45], the IC50 rises from 0.25 µM to 5.53 µM (22-fold). The first is the more potent here.

CNCCN(C)Cc1c[nH]nc1-c1ccc(F)cc1F [Compound 49] and CNCCN(C)Cc1c[nH]nc1-c1ccc(OC)c(F)c1 [Compound 52] are within 1.5-fold of each other in IC50: 4.43 µM for the first, 5.25 µM for the second.

CNCCN(C)Cc1c[nH]nc1-c1cccc2ccccc12 [Compound 57] and CNCCN(C)Cc1c[nH]nc1-c1ccc2ccccc2c1 [Compound 58] are within 1.5-fold of each other in IC50: 3.35 µM for the first, 3.16 µM for the second.

CCN(CCN)Cc1c[nH]nc1-c1ccc(F)cc1 [Compound 62] and CN(CCN)Cc1c[nH]nc1-c1ccc(C#N)cc1 [Compound 68] are within 1.5-fold of each other in IC50: 4.13 µM for the first, 4.36 µM for the second.
